Tests used:
Conditions in all cases: three weeks after treatment
[1] = test system: Amaranthus tuberculatus; test: Pre-emergence herbicidal evaluation, AMATA; assay type: in vivo
Description: (§1) The treated pots are then placed on greenhouse benches, watered and cared for in accordance with conventional greenhouse procedures.

[2] = test system: Galium aparine; test: Pre-emergence herbicidal evaluation, GALAP; assay type: in vivo
Description: as §1

[3] = test system: Alopecurus myosuroides; test: Pre-emergence herbicidal evaluation, ALOMY; assay type: in vivo
Description: as §1

[4] = test system: Apera spica venti; test: Pre-emergence herbicidal evaluation, APESV; assay type: in vivo
Description: as §1

[5] = test system: Echinochloa crus-galli; test: Pre-emergence herbicidal evaluation, ECHCG; assay type: in vivo
Description: as §1

[6] = test system: Setaria viridis; test: Pre-emergence herbicidal evaluation, SETVI; assay type: in vivo
Description: as §1

[7] = test system: Lolium perenne; test: Pre-emergence herbicidal evaluation, LOLPE; assay type: in vivo
Description: as §1

[8] = test system: Triticum aestivum; test: Pre-emergence herbicidal evaluation, TRZAW; assay type: in vivo
Description: as §1

[9] = test system: Hordeum vulgare; test: Pre-emergence herbicidal evaluation, HORVW; assay type: in vivo
Description: as §1

[10] = test system: Zea mays; test: Pre-emergence herbicidal evaluation, ZEAMX; assay type: in vivo
Description: as §1

[11] = test system: Glycine max; test: Pre-emergence herbicidal evaluation, GLXMA; assay type: in vivo
Description: as §1

[12] = test system: Oryza sativum; test: Pre-emergence herbicidal evaluation, ORYSA; assay type: in vivo
Description: as §1

[13] = test system: Amaranthus tuberculatus; test: Post-emergence herbicidal evaluation, AMATA; assay type: in vivo
[14] = test system: Galium aparine; test: Post-emergence herbicidal evaluation, GALAP
[15] = test system: Alopecurus myosuroides; test: Post-emergence herbicidal evaluation, ALOMY
Description: (§2) The compounds of the invention are tested for pre- and post-emergence herbicidal activity.
(§3) Each pot is examined three weeks after treatment and phytotoxicity is assessed according to the rating system set forth below.
(§4) These acetone solutions are diluted with water and the resulting formulations applied at dosage levels equivalent of about 0.4 to 0.1 kg per hectare of test compound per pot. After spraying the plants are placed on greenhouse benches and are cared for in the usual manner, commensurate with conventional greenhouse practices.

[16] = test system: Apera spica venti; test: Post-emergence herbicidal evaluation, APESV
[17] = test system: Echinochloa crus-galli; test: Post-emergence herbicidal evaluation, ECHCG
[18] = test system: Setaria viridis; test: Post-emergence herbicidal evaluation, SETVI
Description: as §2, §3, §4

[19] = test system: Lolium perenne; test: Post-emergence herbicidal evaluation, LOLPE
[20] = test system: Triticum aestivum; test: Post-emergence herbicidal evaluation, TRZAW
[21] = test system: Hordeum vulgare; test: Post-emergence herbicidal evaluation, HORVW
Description: as §3, §4

[22] = test system: Zea mays; test: Post-emergence herbicidal evaluation, ZEAMX
[23] = test system: Glycine max; test: Post-emergence herbicidal evaluation, GLXMA
[24] = test system: Oryza sativum; test: Post-emergence herbicidal evaluation, ORYSA
Description: as §2, §3, §4

SMILES: CC1=CC(N(C(=O)COc2nnc(C(F)(F)F)s2)C(C)C)=CC(C)(C)C1 [Example 4]
- phytotoxicity rating AMATA ([1]; 0.100 kg/ha): 6 (6 - Herbicidal effect)
- phytotoxicity rating AMATA ([1]; 0.200 kg/ha): 6 (6 - Herbicidal effect)
- phytotoxicity rating AMATA ([1]; 0.400 kg/ha): 8 (8 - Approaching complete kill)
- phytotoxicity rating AMATA ([1]; 0.800 kg/ha): 8 (8 - Approaching complete kill)
- phytotoxicity rating GALAP ([2]; 0.100 kg/ha): 0 (0 - No effect)
- phytotoxicity rating GALAP ([2]; 0.200 kg/ha): 0 (0 - No effect)
- phytotoxicity rating GALAP ([2]; 0.400 kg/ha): 2 (2 - Slight effect)
- phytotoxicity rating GALAP ([2]; 0.800 kg/ha): 3 (3 - Moderate effect)
- phytotoxicity rating ALOMY ([3]; 0.100 kg/ha): 7 (7 - Good herbicidal effect)
- phytotoxicity rating ALOMY ([3]; 0.200 kg/ha): 7 (7 - Good herbicidal effect)
- phytotoxicity rating ALOMY ([3]; 0.400 kg/ha): 7 (7 - Good herbicidal effect)
- phytotoxicity rating ALOMY ([3]; 0.800 kg/ha): 9 (9 - Complete kill)
- phytotoxicity rating APESV ([4]; 0.100 kg/ha): 9 (9 - Complete kill)
- phytotoxicity rating APESV ([4]; 0.200 kg/ha): 9 (9 - Complete kill)
- phytotoxicity rating APESV ([4]; 0.400 kg/ha): 9 (9 - Complete kill)
- phytotoxicity rating APESV ([4]; 0.800 kg/ha): 9 (9 - Complete kill)
- phytotoxicity rating ECHCG ([5]; 0.100 kg/ha): 6 (6 - Herbicidal effect)
- phytotoxicity rating ECHCG ([5]; 0.200 kg/ha): 9 (9 - Complete kill)
- phytotoxicity rating ECHCG ([5]; 0.400 kg/ha): 9 (9 - Complete kill)
- phytotoxicity rating ECHCG ([5]; 0.800 kg/ha): 9 (9 - Complete kill)
- phytotoxicity rating SETVI ([6]; 0.100 kg/ha): 6 (6 - Herbicidal effect)
- phytotoxicity rating SETVI ([6]; 0.200 kg/ha): 6 (6 - Herbicidal effect)
- phytotoxicity rating SETVI ([6]; 0.400 kg/ha): 6 (6 - Herbicidal effect)
- phytotoxicity rating SETVI ([6]; 0.800 kg/ha): 9 (9 - Complete kill)
- phytotoxicity rating LOLPE ([7]; 0.100 kg/ha): 8 (8 - Approaching complete kill)
- phytotoxicity rating LOLPE ([7]; 0.200 kg/ha): 9 (9 - Complete kill)
- phytotoxicity rating LOLPE ([7]; 0.400 kg/ha): 9 (9 - Complete kill)
- phytotoxicity rating LOLPE ([7]; 0.800 kg/ha): 9 (9 - Complete kill)
- phytotoxicity rating TRZAW ([8]; 0.100 kg/ha): 0 (0 - No effect)
- phytotoxicity rating TRZAW ([8]; 0.200 kg/ha): 0 (0 - No effect)
- phytotoxicity rating TRZAW ([8]; 0.400 kg/ha): 1 (1 - Trace effect)
- phytotoxicity rating TRZAW ([8]; 0.800 kg/ha): 4 (4 - Injury)
- phytotoxicity rating HORVW ([9]; 0.100 kg/ha): 0 (0 - No effect)
- phytotoxicity rating HORVW ([9]; 0.200 kg/ha): 0 (0 - No effect)
- phytotoxicity rating HORVW ([9]; 0.400 kg/ha): 1 (1 - Trace effect)
- phytotoxicity rating HORVW ([9]; 0.800 kg/ha): 4 (4 - Injury)
- phytotoxicity rating ZEAMX ([10]; 0.100 kg/ha): 0 (0 - No effect)
- phytotoxicity rating ZEAMX ([10]; 0.200 kg/ha): 1 (1 - Trace effect)
- phytotoxicity rating ZEAMX ([10]; 0.400 kg/ha): 1 (1 - Trace effect)
- phytotoxicity rating ZEAMX ([10]; 0.800 kg/ha): 4 (4 - Injury)
- phytotoxicity rating GLXMA ([11]; 0.100 kg/ha): 0 (0 - No effect)
- phytotoxicity rating GLXMA ([11]; 0.200 kg/ha): 0 (0 - No effect)
- phytotoxicity rating GLXMA ([11]; 0.400 kg/ha): 0 (0 - No effect)
- phytotoxicity rating GLXMA ([11]; 0.800 kg/ha): 1 (1 - Trace effect)
- phytotoxicity rating ORYSA ([12]; 0.100 kg/ha): 3 (3 - Moderate effect)
- phytotoxicity rating ORYSA ([12]; 0.200 kg/ha): 4 (4 - Injury)
- phytotoxicity rating ORYSA ([12]; 0.400 kg/ha): 5 (5 - Definite injury)
- phytotoxicity rating ORYSA ([12]; 0.800 kg/ha): 5 (5 - Definite injury)
- phytotoxicity rating AMATA ([13]; 0.100 kg/ha): 1 (1 - Trace effect)
- phytotoxicity rating AMATA ([13]; 0.200 kg/ha): 1 (1 - Trace effect)
- phytotoxicity rating AMATA ([13]; 0.400 kg/ha): 4 (4 - Injury)
- phytotoxicity rating GALAP ([14]; 0.100 kg/ha): 0 (0 - No effect)
- phytotoxicity rating GALAP ([14]; 0.200 kg/ha): 0 (0 - No effect)
- phytotoxicity rating GALAP ([14]; 0.400 kg/ha): 2 (2 - Slight effect)
- phytotoxicity rating ALOMY ([15]; 0.100 kg/ha): 4 (4 - Injury)
- phytotoxicity rating ALOMY ([15]; 0.200 kg/ha): 8 (8 - Approaching complete kill)
- phytotoxicity rating ALOMY ([15]; 0.400 kg/ha): 8 (8 - Approaching complete kill)
- phytotoxicity rating APESV ([16]; 0.100 kg/ha): 2 (2 - Slight effect)
- phytotoxicity rating APESV ([16]; 0.200 kg/ha): 8 (8 - Approaching complete kill)
- phytotoxicity rating APESV ([16]; 0.400 kg/ha): 8 (8 - Approaching complete kill)
- phytotoxicity rating ECHCG ([17]; 0.100 kg/ha): 3 (3 - Moderate effect)
- phytotoxicity rating ECHCG ([17]; 0.200 kg/ha): 6 (6 - Herbicidal effect)
- phytotoxicity rating ECHCG ([17]; 0.400 kg/ha): 6 (6 - Herbicidal effect)
- phytotoxicity rating SETVI ([18]; 0.100 kg/ha): 3 (3 - Moderate effect)
- phytotoxicity rating SETVI ([18]; 0.200 kg/ha): 5 (5 - Definite injury)
- phytotoxicity rating SETVI ([18]; 0.400 kg/ha): 5 (5 - Definite injury)
- phytotoxicity rating LOLPE ([19]; 0.100 kg/ha): 5 (5 - Definite injury)
- phytotoxicity rating LOLPE ([19]; 0.200 kg/ha): 7 (7 - Good herbicidal effect)
- phytotoxicity rating LOLPE ([19]; 0.400 kg/ha): 8 (8 - Approaching complete kill)
- phytotoxicity rating TRZAW ([20]; 0.100 kg/ha): 0 (0 - No effect)
- phytotoxicity rating TRZAW ([20]; 0.200 kg/ha): 1 (1 - Trace effect)
- phytotoxicity rating TRZAW ([20]; 0.400 kg/ha): 3 (3 - Moderate effect)
- phytotoxicity rating HORVW ([21]; 0.100 kg/ha): 0 (0 - No effect)
- phytotoxicity rating HORVW ([21]; 0.200 kg/ha): 1 (1 - Trace effect)
- phytotoxicity rating HORVW ([21]; 0.400 kg/ha): 2 (2 - Slight effect)
- phytotoxicity rating ZEAMX ([22]; 0.100 kg/ha): 0 (0 - No effect)
- phytotoxicity rating ZEAMX ([22]; 0.200 kg/ha): 0 (0 - No effect)
- phytotoxicity rating ZEAMX ([22]; 0.400 kg/ha): 0 (0 - No effect)
- phytotoxicity rating GLXMA ([23]; 0.100 kg/ha): 2 (2 - Slight effect)
- phytotoxicity rating GLXMA ([23]; 0.200 kg/ha): 4 (4 - Injury)
- phytotoxicity rating GLXMA ([23]; 0.400 kg/ha): 6 (6 - Herbicidal effect)
- phytotoxicity rating ORYSA ([24]; 0.100 kg/ha): 0 (0 - No effect)
- phytotoxicity rating ORYSA ([24]; 0.200 kg/ha): 1 (1 - Trace effect)
- phytotoxicity rating ORYSA ([24]; 0.400 kg/ha): 1 (1 - Trace effect)

From US6339042B1, “Herbicidal N-cyclohexadienyl heteroaryloxyacetamides” (American Cyanamid Co., priority 1999, dated 2002)
